Source: US6160087A, “Peptides having an amino acid sequence from the fimbrial protein of porphyromonas gingivalis and their uses” (priority 1993, dated 2000)
Where no end group is shown, it is not given here.

Columns and labels:
[1] = system: anti-Porphyomonas gingivalis fimbria antibodies contained in sera of patients with periodontal disease; assay: Assay of the specific antibody in serum using plates coated with peptide-modified BSA (ELISA); type: binding, human; conditions: average absorbance (405 nm) of 3 specimens, serum diluted 100 times
Protocol: One mg of each peptide synthesized in Example 2 was dissolved in 1 ml of 0.1 M phosphate buffered saline (PBS, pH 6.0), 5 mg of sulfated SMCC (made by Pierce Co.) was added, and the mixture was incubated at 30° C. for 30 minutes to conduct maleimidization, and then subjected to Sephadex G-10 column chromatography, and the first eluate fraction was collected. 7 mg of bovine serum albumin (BSA: made by Wako Pure Chemical Industries, Ltd.) was dissolved in 1 ml of 0.1 M phosphate buffer (pH 6.0), 10 mM EDTA, the solution was mixed with the above maleimidized peptide, and the mixture was subjected to reaction at 30° C. for 1 hour. The resultant peptide-modified BSA was subjected to Sephadex G-50 column chromatography, and the first eluate fraction was collected as a plate-preparing antigen solution.
Then, six kind of peptides were synthesized after the process of Example 2, and a plate-preparing antigen solution was similarly prepared as a control.
Each of the resultant antigen solutions was diluted with 0.1 M carbonate buffer (pH 9.6), 150 mM NaCl to give 100 ml of a solution. 10 μl/well of the solution was put in a polystyrene-made microtiter plate (Immunoplate II; maxisorp type; made by Nunc Co.) and left alone at 4° C. overnight, and washing was conducted three times each with 200 μl/well of PBS, using a microtiter automatic washer (hereafter abbreviated as washer; made by Bio-Rad Laboratories). 250 μl/well of PBS containing 0.1% gelatin (made by Nitta Gelatin Co., Ltd.) was added and the mixture was allowed to stand at 4° C. overnight to block the plate. The blocking solution was removed by absorption, and the plate was dried by a vacuum dryer, put in an aluminum bag, and after sealing the bag, kept at 4° C. for the following assay.
Sera of patients of periodontal disease (n=3) and normal subjects (n=3) were used as samples, and each serum was diluted 100 times with PBS containing 10% bovine serum. 100 μl portions of these dilutions were added to the plates coated with various antigens, respectively, and incubation was conducted at 37° C. for 1 hour. Each plate was washed three times with 200 μl of PBST using the washer, 100 μl of a commercially available […] (diluted 10^3 times)/0.1% Casein/PBST was added as a secondary antibody, and incubation was conducted again at 37° C. for 1 hour. The plate was washed in the same manner as above, 100 μl of an o-phenylenediamine solution was added, incubation was conducted at 37° C. for 30 minutes, 100 μl of 0.1 N sulfuric acid was added to stop the reaction, and then, absorbance (405 nm) was measured by a microplate reader (made by Bio-Rad Laboratories) using the reaction well of no addition of the specimen as a control. The measures values are average absorbances of 3 specimens each of the patient group of periodontal disease and the normal subject group.

[2] = Immunization of mice with the peptides: body weight; type: in vivo; conditions: mice immunized with FCA emulsion, 3 animals per group
Protocol: (§1) Each peptide synthesized in Example 2 was dissolved in PBS so as to make the concentration 200 μg/ml, the solution was mixed with the same volume of FCA, and the mixture after emulsification was subcutaneously injected into mice at the back (3 animals per group). 4 weeks later, the antibody titer in the serum or saliva against the peptide was assayed by an ELISA method.

[3] = system: fimbrial protein of Porphyomonas gingivalis; assay: Immunization of mice with the peptides: antibody titer in serum or saliva by ELISA; type: in vivo; conditions: A405 value by the ELISA method, with FCA, 4 weeks later
Protocol: as §1
The fimbrial protein of Porphyomonas gingivalis was adsorbed on each well of a 96-well microtiter plate for ELISA, and a dilution of the serum with PBS (1/10^5), a dilution of the saliva with PBS (1/500), or a solution obtained by adding each peptide or the fimbrial protein of Porphyomonas gingivalis is to the dilution of the serum or saliva to cause absorption was put in the well. Reaction was conducted at 37° C. for 1 hour, and then assay was conducted by a usual ELISA method.

[4] = system: Porphyomonas gingivalis; type: in vivo, guinea pig; conditions: with FCA; for Degree of redness Longest length × shortest length: 500 μg/animal, inoculation on the 28th day, 24 hours later; for Inhibition rate: relative to the FIA inoculation group
Protocol: Each peptide synthesized in Example 2 was administered together with FIA (Freund's incomplete adjuvant) or FCA (Freund's complete adjuvant), as a water-in-oil type emulsifier, into the sole of the right hind leg of a guinea pig in an amount of 500 μg/animal/time. Thereafter, on the 28th day, 200 μl of a suspension of 10^11 cells/ml of the bacterium was intracutaneously inoculated into the right flank of the same guinea pig after the hair at the region was shaved. 24 hours later, the longest length and shortest length of the resultant red coloring were measured, and the product of them was calculated. From the product was calculated the inhibition rate.

VMVYNGEQQE [Comparative peptide, reference compound]
Antibody titer, Normal subject group [1]: 0.172 | Antibody titer, Patient group with peridontal disease [1]: 0.165

Peptide 4: synthetic peptide, epitope of the 41 kD fimbrial subunit protein of Porphyomonas gingivalis; sequence in Table 1, not shown (AAGLIMTAEP)
Body weight (Average g) [2]: 27 g | Antibody titer, Normal subject group [1]: 0.197 | Antibody titer, Patient group with peridontal disease [1]: 0.941 | Antibody titer Saliva (1/500) After absorption [3]: 0.12 | Antibody titer Saliva (1/500) Before absorption [3]: 0.49 | Antibody titer Serum (1/10^5) After absorption [3]: 0.13 | Antibody titer Serum (1/10^5) Before absorption [3]: 0.52 | Degree of redness Longest length × shortest length [4]: 851 mm^2 | Inhibition rate [4]: 56.3%

Peptide 3: synthetic peptide, epitope of the 41 kD fimbrial subunit protein of Porphyomonas gingivalis; sequence in Table 1, not shown (AENQEAAGLI)
Body weight (Average g) [2]: 26 g | Antibody titer, Normal subject group [1]: 0.214 | Antibody titer, Patient group with peridontal disease [1]: 0.623 | Antibody titer Saliva (1/500) After absorption [3]: 0.09 | Antibody titer Saliva (1/500) Before absorption [3]: 0.37 | Antibody titer Serum (1/10^5) After absorption [3]: 0.16 | Antibody titer Serum (1/10^5) Before absorption [3]: 0.38 | Degree of redness Longest length × shortest length [4]: 1155 mm^2 | Inhibition rate [4]: 40.7%

Peptide 9: synthetic peptide, epitope of the 41 kD fimbrial subunit protein of Porphyomonas gingivalis; sequence in Table 1, not shown (EGKTYYPVLV)
Body weight (Average g) [2]: 26 g | Antibody titer, Normal subject group [1]: 0.186 | Antibody titer, Patient group with peridontal disease [1]: 0.546 | Antibody titer Saliva (1/500) After absorption [3]: 0.13 | Antibody titer Saliva (1/500) Before absorption [3]: 0.34 | Antibody titer Serum (1/10^5) After absorption [3]: 0.13 | Antibody titer Serum (1/10^5) Before absorption [3]: 0.32 | Degree of redness Longest length × shortest length [4]: 1265 mm^2 | Inhibition rate [4]: 35.0%

RTLVVMANTG [Comparative peptide, reference compound]
Antibody titer, Normal subject group [1]: 0.161 | Antibody titer, Patient group with peridontal disease [1]: 0.199

Peptide 5: synthetic peptide, epitope of the 41 kD fimbrial subunit protein of Porphyomonas gingivalis; sequence in Table 1, not shown (TGSLTTFNGA)
Body weight (Average g) [2]: 28 g | Antibody titer, Normal subject group [1]: 0.165 | Antibody titer, Patient group with peridontal disease [1]: 0.760 | Antibody titer Saliva (1/500) After absorption [3]: 0.15 | Antibody titer Saliva (1/500) Before absorption [3]: 0.42 | Antibody titer Serum (1/10^5) After absorption [3]: 0.11 | Antibody titer Serum (1/10^5) Before absorption [3]: 0.45 | Degree of redness Longest length × shortest length [4]: 1063 mm^2 | Inhibition rate [4]: 45.4%

LCVYGKLQKN [Comparative peptide, reference compound]
Antibody titer, Normal subject group [1]: 0.213 | Antibody titer, Patient group with peridontal disease [1]: 0.182

NHIENDPLKI [Comparative peptide, reference compound]
Antibody titer, Normal subject group [1]: 0.201 | Antibody titer, Patient group with peridontal disease [1]: 0.205

WLSRNYVAPA [Comparative peptide, reference compound]
Antibody titer, Normal subject group [1]: 0.204 | Antibody titer, Patient group with peridontal disease [1]: 0.210

Peptide 2: synthetic peptide, epitope of the 41 kD fimbrial subunit protein of Porphyomonas gingivalis; sequence in Table 1, not shown (EVKALTTELT)
Body weight (Average g) [2]: 26 g | Antibody titer, Normal subject group [1]: 0.205 | Antibody titer, Patient group with peridontal disease [1]: 0.566 | Antibody titer Saliva (1/500) After absorption [3]: 0.17 | Antibody titer Saliva (1/500) Before absorption [3]: 0.36 | Antibody titer Serum (1/10^5) After absorption [3]: 0.15 | Antibody titer Serum (1/10^5) Before absorption [3]: 0.34 | Degree of redness Longest length × shortest length [4]: 1179 mm^2 | Inhibition rate [4]: 39.5%

DANYLTGSLT [Comparative peptide, reference compound]
Antibody titer, Normal subject group [1]: 0.145 | Antibody titer, Patient group with peridontal disease [1]: 0.196

Peptide 6: synthetic peptide, epitope of the 41 kD fimbrial subunit protein of Porphyomonas gingivalis; sequence in Table 1, not shown (TFNGAYTPAN)
Body weight (Average g) [2]: 26 g | Antibody titer, Normal subject group [1]: 0.141 | Antibody titer, Patient group with peridontal disease [1]: 0.675 | Antibody titer Saliva (1/500) After absorption [3]: 0.11 | Antibody titer Saliva (1/500) Before absorption [3]: 0.39 | Antibody titer Serum (1/10^5) After absorption [3]: 0.12 | Antibody titer Serum (1/10^5) Before absorption [3]: 0.41 | Degree of redness Longest length × shortest length [4]: 1112 mm^2 | Inhibition rate [4]: 42.9%

Peptide 8: synthetic peptide, epitope of the 41 kD fimbrial subunit protein of Porphyomonas gingivalis; sequence in Table 1, not shown (ANGGTIHPTI)
Body weight (Average g) [2]: 25 g | Antibody titer, Normal subject group [1]: 0.182 | Antibody titer, Patient group with peridontal disease [1]: 0.935 | Antibody titer Saliva (1/500) After absorption [3]: 0.14 | Antibody titer Saliva (1/500) Before absorption [3]: 0.45 | Antibody titer Serum (1/10^5) After absorption [3]: 0.11 | Antibody titer Serum (1/10^5) Before absorption [3]: 0.49 | Degree of redness Longest length × shortest length [4]: 1022 mm^2 | Inhibition rate [4]: 47.5%
